Test results: article PMC8750417, “Intracellular Amplifiers of Reactive Oxygen Species Affecting Mitochondria as Radiosensitizers” (Cancers, 2021)

Assays:
[1] = Solubility in RPMI 1640 medium, precipitation seen by bright field optical microscopy; conditions: DMSO 1%
Experimental: The latter medium was selected, since we used it for the cellular assays. […] Then we monitored the formation of (not detectable in the previous experiment) aggregated species in prodrug solutions that appeared transparent (concentrations < 50 µM) by using dynamic light scattering. […]
Solubility of drugs in aqueous buffers
Observing prodrug precipitation by using bright field optical microscopy […]
glutamine (1 %), and penicillin/streptomycin (1 %) was filled into 96-well microtiter plates (100 µL for each well) and compounds in DMSO stock solution (1 µL) were added. Each well was monitored by using bright field optical microscopy both immediately after […]

A2780 cells = assay: Generation of nitric oxide (DAF-FM diacetate), A2780; type: cell-based, human; conditions: 2 h
Experimental: with CO2 (5%) at 37 °C for 2 h. Next, the cells were detached from the culture dish using trypsin/EDTA (0.025%/0.01%, v/v, 200 µL). The cells were re-suspended in RPMI 1640 medium containing 5% FBS, 1% L-glutamine and 1% penicillin/streptomycin (200 µL).
Finally, the fluorescence of live cells (λex = 488 nm, λem = 530 nm) in the suspensions was determined by using flow cytometry (Figure 4C).
Figure S61. Representative flow cytometric histograms used for setting up Figure 4C.
Generation of nitric oxide in A2780 cells
A2780 cells were seeded into 96 well culture plates at the same cell concentration and in the same medium as applied for the assay for monitoring mROS described above. On the day of the experiment, the cells were washed twice with DPBS buffer and the medium was replaced with HBSS (100 μL). […]
The cells were re-suspended in RPMI 1640 medium containing 5% FBS, 1% L-glutamine and 1% penicillin/streptomycin (100 µL). Finally, the fluorescence of live cells (λex = 488 nm, λem = 530 nm) in the suspensions was determined by using flow cytometry (Figure […]
Figure S62. Fluorescence of DAF-FM diacetate-loaded A2780 cells treated either with 2c or the carrier. *: p<0.05, Student’s t test. […]

[2] = system: mononuclear cells (MNCs) from healthy donors; assay: Viability of primary mononuclear cells (CellTiter Glo); type: cell-based, human; conditions: primary MNC from six healthy donors, 48 h
Experimental: Afterwards, the cells were washed with DPBS and a fresh portion of RPMI 1640 medium containing 5% FBS, 1% L-glutamine and 1% penicillin/streptomycin (1 mL) was added.
The fluorescence images were taken with a Zeiss Axio Vert.A1 fluorescence microscope […]
For SBLF9 the same procedure was applied except that Ham's F-12K (Kaighn's)-Medium supplemented with 15 % FBS, 2 % non-essential amino acid mix, and 1 % penicillin/streptomycin was used for cell seeding and incubation with the prodrug or the carrier. A cell density of 40 cells/µL was used.
Determination of viability of primary cancer (CLL) and normal (MNC) cells in the […]
Clinical samples from chronic lymphocytic leukemia (CLL) patients (N=6, CLL cells) and healthy donors (N=6; peripheral blood mononuclear cells, MNCs) were collected at the University Hospital Heidelberg, Germany. Informed consent was obtained in accordance with the Declaration of Helsinki. Sample collection and analysis was approved by the ethics committee of the University of Heidelberg (S-254/2016). Blood was separated by a Ficoll gradient (GE Healthcarey), and cells were cryopreserved. […]
4x10^4 cells per well. […] Cell viability was assessed by quantification of ATP (CellTiter Glo®, Promega) 48 hours after drug application.
Luminescence was measured on a Tecan Infinite F200 Microplate Reader. Viability was calculated as % of solvent (DMSO) treated control. […]

CC1(C)OB(c2ccc(COC(=O)N(Cc3cn(Cc4ccc(Cn5cc(Cc6ccccc6)nn5)cc4)nn3)[c-]3cccc3)cc2)OC1(C)C.[Fe+2].c1cc[cH-]c1 [2c]
Solubility ([1]; 48 h incubation in RPMI 1640, FBS 5%, first signs of precipitation): 30 µM | first signs of precipitation ([1]; immediately after dilution in RPMI 1640, FBS 5%): 30 µM | level of NO vs carrier (A2780 cells): higher than that in A2780 cells treated with DMSO (carrier) only | IC50 [2]: 12 ± 3 µM
